Here are results for four compounds from PubChem BioAssay AID2060507 (Molecular Pharmacology Branch, DTP, NCI, 2025).

The viability, T/C is the result in the treated group divided by that in the control group, in per cent. The IC50 is the point on the concentration scale where inhibition reaches its midpoint.

The assay relates to 519858-162-T-J1-PDC complex spheroid viability. As to the kind of experiment: Anticancer human tumor 519858-162-T-J1-PDC patient-derived colon adenocarcinoma cell line growth inhibition [GQUAD]. The settings on record: for viability, T/C: stronger effect = lower value. From the text: DNA G-quadruplex Stabilizer Agents in Combinations in Complex Spheroids
A high-throughput screen of multi-cell type tumor spheroids was designed to identify active combinations of DNA G-quadruplex stabilizer agents and targeted small molecules. Complex spheroids include a stromal component modeled by human endothelial cells (HUVEC) and fibroblasts modeled by human mesenchymal stem cells (MSCs). The concentration ranges selected for each drug and investigational agent were based upon clinically achievable concentrations if the clinical Cmax of the agent was known.
Compounds. The drugs and investigational agents: pidnarulex (CX-5461; NSC782164), APTO-253 (NSC789042), BRACO-19 (NSC847499), peposertib (NSC802822), ceralasertib (NSC780249), elimusertib (NSC800525), camonsertib (NSC841442), AZD-1390 (NSC803789), olaparib (NSC753686), talazoparib (NSC767125), ART-558 (NSC835418), sotorasib (NSC818433), MRTX-1133 (NSC836407), SN-38 (NSC673596), topotecan (NSC609699), etoposide (NSC141540), doxorubicin (NSC123127), gemcitabine (NSC613327), 5-fluorouracil (NSC19893), paclitaxel (NSC125973), vemurafenib (NSC761431), panobinostat (NSC761190), R-306465 (JNJ-16241199; NSC773264), adavosertib (NSC754352), TP-3654 (NSC805149), carboplatin (NSC241240), KSQ-4279 (NSC840948), and staurosporine (NSC755774) were obtained from the National Cancer Institute (NCI) Developmental Therapeutics Program Chemical Repository (34). The FDA-approved anticancer drug set is available from the NCI Developmental Therapeutics Program. […] The stock solutions were prepared in dimethyl sulfoxide (DMSO, Sigma-Aldrich, St. Louis, MO, cat. D2650) at 800-fold the tested concentration and stored at -70 degrees C prior to their use. All drugs and investigational agents were tested over a range starting from a high concentration at or near the clinical Cmax and decreasing in half-log increments. If the clinical Cmax for an agent had not been determined, the highest concentration tested was 10 microM.
2.3 Cell Culture. All cells were maintained in an incubator at 37 degrees C and 5% CO2 with 95% humidity. The PDC lines were cultured according to standard operating procedures established by the NCI PDMR. All PDCs were thawed and cultured in Matrigel-coated flasks prepared with a working solution of 1X Ham's F-12 nutrient mix, without supplementation (Invitrogen, cat. 11765054), 100 U/mL penicillin-streptomycin (Invitrogen, cat. 15140122), and 2.5% Matrigel (Corning Inc., cat. 354248) for the first three passages. The 857933-349-R-J2-PDC line was cultured in 6C/Colon 1B media, which includes advanced DMEM/F-12 (Thermo Fisher Scientific, cat. 12634028), 10 mM HEPES (Thermo Fisher Scientific, cat. 15630080), 1X GlutaMAX supplement (Thermo Fisher Scientific, cat. 35050061), 0.1 mg/mL primocin (InvivoGen, cat. ant-pm-2), 10% defined fetal bovine serum, heat inactivated (HyClone Laboratories Inc., cat. SH30070.03HI), 50% L-WRN conditioned media (ATCC, cat. CRL-3276), 1.25 mM N-Acetyl-L-cysteine (Sigma-Aldrich, cat. A9165), 10 mM nicotinamide (Sigma-Aldrich, cat. N0636), 1X B-27 supplement (Thermo Fisher Scientific, cat. 17504044), 1X N-2 supplement (Thermo Fisher Scientific, cat. 17502048), 10 microM Y-27632 dihydrochloride (Tocris Bioscience, cat. 1254), and 50 ng/mL human EGF recombinant protein (Thermo Fisher Scientific, cat. PHG0311). The 485176-168-R4-J1-PDC line was cultured in Panc media, which includes all 6C/Colon 1B media components plus 100 ng/mL human FGF-10 (Thermo Fisher Scientific, cat. 100-26), 500 nM SB-431542 (Selleckchem, cat. S1067), and gastrin (Tocris, cat. 3006).
[…]

Values joined by “and” are separate entries in the source; they are usually repeats but may differ in a detail not shown here. Equal entries are not always repeated.
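Also: spheroids exposed to compounds for 7 days.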

Regarding `C=CCn1c(=O)c2cnc(Nc3ccc(N4CCN(C)CC4)cc3)nc2n1-c1cccc(C(C)(C)O)n1`, the viability, T/C was 83% and 81.4% (compound 0.0316 µM); 107% and 106% (compound 0.1 µM); 126% and 105% (compound 0.316 µM); 104% and 95.3% (compound 1 µM); 83.3% and 94.8% (compound 3.16 µM); 92.4% and 92.1% (compound 10 µM). Besides, the IC50 (curve of compound) is above 10 µM.

On to `COc1ncnc(C2CC2)c1-c1ncc2cnn(Cc3ccc(-c4nc(C(F)(F)F)cn4C(C)C)cc3)c2n1`, for which the viability, T/C is 104% and 85.1% (compound 0.0316 µM); 111% and 83.2% (compound 0.1 µM); 101% and 92.7% (compound 0.316 µM); 119% and 75.2% (compound 1 µM); 95.7% and 89.8% (compound 3.16 µM); 83.2% and 81.7% (compound 10 µM). Besides, the IC50 (curve of compound) was above 10 µM.

On to `Cc1[nH]c2ccc(F)cc2c1-c1nc2c3cccnc3c3ncccc3c2[nH]1`, for which the viability, T/C reads like this: (compound 0.1 µM) 87.9% [middle of 9 runs]; (compound 0.316 µM) 92.2% [middle of 9 runs]. For the same compound, the IC50 (compound alone, run of 02/20/2024) was 8.82 µM and > 10 µM and 9.27 µM; the IC50 (compound alone, run of 02/26/2024) is above 10 µM.

Regarding `Cc1cnc(CNC(=O)c2c(=O)c3ccc(N4CCCN(C)CC4)nc3n3c2sc2ccccc23)cn1`, the viability, T/C is, setting by setting: (compound 1 µM) 69.1% [middle of 10 runs]; (compound 10 µM) 52.6% [middle of 10 runs].
